Data taken from patent US5968763A, “Method for screening inhibitors of the enzyme which cleaves the anchor of surface proteins from gram positive bacteria” (The Rockefeller University, priority 1997, dated 1999).

System: LPXTGX cleavage enzyme (carbonate extract of D471 membranes)
Test: Cleavage of 125I-labeled LPSTGE synthetic peptide linked to beads (release of radiolabel) by carbonate extract of streptococcal membranes
Assay type: biochemical, M type 6 streptococcal strain D471 (Streptococcus pyogenes)
Conditions: carbonate extract of the membranes as enzyme source, FIG. 3; for cleavage activity in the presence of inhibitor: 1 mM each
Experimental: The peptide was radiolabeled with ^125 I using Iodobeads and then the labeled peptide was purified on a Sephadex G10 column and covalently linked by its N-terminal end by EDC (ethyl-3-(3 […])carbodiimide HCl) to an extended arm on a commercially available bead (3M Emphase Biospheres AB1 from Pierce, Rockford, Ill.), and the excess radiolabel removed by washing the beads with 1 M NaCl buffer.
M type 6 streptococcal strain D471 was treated with 0.1 M sodium carbonate (pH 11.5) and incubated for 30 minutes at 0° C. to extract the streptococcal membranes.
The resulting extract was mixed with the labeled beads of Example 1 (50 μl sample, 50 μl 50 mM Tris HCl (pH 8.0) with 10 mM DTT).
The carbonate extract was chromatographed on a 20 HQ perfusion chromatography column, using a Biocad Sprint instrument (Perceptive Biosystem), employing a NaCl gradient from 0 mM to 500 mM (24.9 ml) followed by a 500 mM to 1000 mM (33.2 ml) gradient. To measure the enzyme activity found in the fractions, a 50 μl sample from each fraction was mixed in a reaction buffer in a final volume of 100 μl containing 5 mM DTT and 5 μl of the bead-substrate as described in Example 1. Control samples containing only buffer and the substrate were also mixed and incubated at 37° C. for 4 hours under constant slow rotation. The released radioactivity was then measured in 25 μl of the supernatant obtained after centrifugation. The specific activity was measured after subtracting the control values from the test samples.
FIG. 3 illustrates the enzymatic activity of the carbonate extract of the membranes (as the enzyme source) in the presence of various inhibitors and activators.

SMILES | cleavage activity in the presence of inhibitor | other results
OC(CS)C(O)CS (stereo not shown) [DTT] |  | enzymatic (cleavage) activity in the presence of activator (5 mM DTT): enhanced
O=S(=O)(O)c1cc[c]([Hg][OH])cc1 [PHMPS, parahydroxymercuriphenylsulfonic acid] | inhibited cleavage activity | 
[Ca+2] [calcium] |  | enzymatic (cleavage) activity in the presence of divalent cations (divalent cations such as calcium): enhanced
O=C(O)c1cc[c]([Hg][OH])cc1 [PHMB, parahydroxymercuribenzoic acid] | inhibited cleavage activity | 
